Test results taken from patent US8921404B2, “Azole derivatives in the form of lipase and phospholipase inhibitors” (Sanofi, priority 2005, dated 2014).

Target: hormone sensitive lipase, HSL (Rattus norvegicus (Rat), UniProt P15304)
Test: HSL inhibition assay
Assay type: biochemical
Conditions: partially purified HSL from rat fat cells; [3H]trioleoylglycerol substrate
Protocol: 1.1. Preparation of the Partially Purified HSL:
Isolated rat fat cells are obtained from epididymal adipose tissue from untreated male rats (Wistar, 220-250 g) by collagenase treatment in accordance with published methods (e.g. S, Nilsson et al., Anal. Biochem. 158, 1986, 399-407; G. Fredrikson et al., J. Biol. Chem. 256, 1981, 6311-6320; H. Tornquist et al., J. Biol. Chem. 251, 1976, 813-819). The fat cells from 10 rats are washed three times by flotation with 50 ml of homogenization buffer ([…] Tris/HCl, pH 7.4, 0.25 M sucrose, 1 mM ETDA, 1 mM DTT, 10 μg/ml leupeptin, 10 μg/ml antipain, 20 μg/ml pepstatin) each time and finally taken up in 10 ml of homogenization buffer. The fat cells are homogenized in a Teflon-in-glass homogenizer (Braun-Melsungen) by 10 strokes at 1500 rpm and 15° C. The homogenate is centrifuged (Sorvall SM24 tubes, 5000 rpm, 10 min, 4° C.). The subnatant between the layer of fat at the top and the pellet is removed and the centrifugation is repeated. The subnatant resulting therefrom is centrifuged again (Sorvall SM24 tubes, 20 000 rpm, 45 min, 4° C.). The subnatant is removed, and 1 g of heparin-Sepharose (Pharmacia-Biotech, CL-6B, washed 5× with 25 mM Tris/HCl, pH 7.4, 150 mM NaCl) is added. After incubation at 4° C. for 60 min (shaking at intervals of 15 min), the mixture is centrifuged (Sorvall SM24 tubes, 3000 rpm, 10 min, 4° C.). The supernatant is adjusted to pH 5.2 by adding glacial acetic acid and is incubated at 4° C. for 30 min. The precipitates are collected by centrifugation (Sorvall SS34, 12 000 rpm, 10 min, 4° C.) and suspended in 2.5 ml of 20 mM Tris/HCl, pH 7.0, 1 mM EDTA, 65 mM NaCl, 13% sucrose, 1 mM DTT, 10 μg/ml leupeptin/pepstatin/antipain. The suspension is dialyzed against 25 mM Tris/HCl, pH 7.4, 50% glycerol, 1 mM DTT, 10 μg/ml leupeptin, pepstatin, antipain at 4° C. overnight and then loaded onto a hydroxyapatite column (0.1 g per 1 ml of suspension, equilibrated with 10 mM potassium phosphate, pH 7.0, 30% glycerol, 1 mM DTT). The column is washed with four volumes of equilibration buffer at a flow rate of 20 to 30 ml/h. The HSL is eluted with one volume of equilibration buffer containing 0.5 M potassium phosphate and then dialyzed (see above) and concentrated 5- to 10-fold by ultrafiltration (Amicon Diaflo PM 10 Filter) at 4° C. The partially purified HSL can be stored at −70° C. for 4 to 6 weeks.
To prepare the substrate, 25-50 μCi of [3H]trioleoylglycerol (in toluene), 6.8 μmol of unlabeled trioleoylglycerol and 0.6 mg of phospholipids (phosphatidylcholine/phosphatidylinositol 3:1 w/v) are mixed, dried with N2 and then taken up in 2 ml of 0.1 M KPi (pH 7.0) by ultrasound treatment (Branson 250, microtip, setting 1-2, 2×1 min with an interval of 1 min). After addition of 1 ml of KPi and renewed ultrasound treatment (4×30 sec on ice with intervals of 30 sec), 1 ml of 20% BSA (in KPi) is added (final concentration of trioleoylglycerol 1.7 mM). For the reaction, 100 μl of substrate solution are pipetted into 100 μl of HSL solution (HSL prepared as above, diluted in 20 mM KPi, pH 7.0, 1 mM EDTA, 1 mM DTT, 0.02% BSA, 20 μg/ml pepstatin, 10 μg/ml leupeptin) and incubated at 37° C. for 30 min. Addition of 3.25 ml of methanol/chloroform/heptane (10:9:7) and of 1.05 ml of 0.1 M K2CO3, 0.1 M boric acid (pH 10.5) is followed by thorough mixing and finally centrifugation (800×g, 20 min). After phase separation, one equivalent of the upper phase (1 ml) is removed and the radioactivity is determined by liquid scintillation measurement.
1.3 Evaluation of the HSL-Inhibitory Effect:
Substances are normally tested in four independent mixtures. The inhibition of the HSL enzymatic activity by a test substance is determined by comparing with an uninhibited control reaction. The IC50 is calculated from an inhibition plot with at least 10 concentrations of the test substance. The GRAPHIT, Elsevier-BIOSOFT software package is used to analyze the data.

Sequence of hormone sensitive lipase, HSL (P15304 301-1068, change not shown): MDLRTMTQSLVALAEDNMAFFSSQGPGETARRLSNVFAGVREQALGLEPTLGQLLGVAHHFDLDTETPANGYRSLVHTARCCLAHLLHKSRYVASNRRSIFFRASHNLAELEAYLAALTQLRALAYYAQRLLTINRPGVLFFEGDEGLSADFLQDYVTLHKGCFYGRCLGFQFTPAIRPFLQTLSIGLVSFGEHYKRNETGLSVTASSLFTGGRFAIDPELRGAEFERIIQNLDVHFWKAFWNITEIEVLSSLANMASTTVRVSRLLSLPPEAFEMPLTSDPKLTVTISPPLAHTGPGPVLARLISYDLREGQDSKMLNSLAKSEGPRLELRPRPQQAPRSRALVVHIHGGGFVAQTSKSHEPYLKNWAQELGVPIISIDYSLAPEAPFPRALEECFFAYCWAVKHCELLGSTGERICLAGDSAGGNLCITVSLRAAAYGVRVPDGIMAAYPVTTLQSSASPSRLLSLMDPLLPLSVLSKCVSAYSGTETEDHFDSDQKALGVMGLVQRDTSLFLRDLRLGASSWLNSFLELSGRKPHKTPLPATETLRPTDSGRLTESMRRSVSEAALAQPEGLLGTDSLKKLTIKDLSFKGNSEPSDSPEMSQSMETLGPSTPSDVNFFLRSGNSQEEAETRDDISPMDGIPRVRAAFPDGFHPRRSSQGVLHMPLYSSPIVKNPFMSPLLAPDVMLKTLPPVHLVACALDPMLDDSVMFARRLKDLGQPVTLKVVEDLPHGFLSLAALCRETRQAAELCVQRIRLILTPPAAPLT

Row | Compound | IC50
1 | CC1CCN(C(=O)Oc2noc3cc(Cl)ccc23)CC1 [Example 1, 6-Chlorobenzo[d]isoxazol-3-yl 4-methylpiperidine-1-carboxylate] | 0.12 µM
2 | CC1CCN(C(=O)Oc2noc3ncccc23)CC1 [Example 2, Isoxazolo[5,4-b]pyridin-3-yl 4-methylpiperidine-1-carboxylate] | 0.12 µM
3 | O=C(Oc1noc2cc(Cl)ccc12)N1CCC(C(F)(F)F)CC1 [Example 3, 6-Chlorobenzo[d]isoxazol-3-yl 4-trifluoromethylpiperidine-1-carboxylate] | 0.1 µM
4 | CC1CCN(C(=O)Oc2nsc3ncccc23)CC1 [Example 4, Isothiazolo[5,4-b]pyridin-3-yl 4-methylpiperidine-1-carboxylate] | 0.1 µM
5 | CC1CCN(C(=O)Oc2nsc3ccccc23)CC1 [Example 5, Benzo[d]isothiazol-3-yl 4-methylpiperidine-1-carboxylate] | 0.1 µM
6 | CC1CCN(C(=O)Oc2noc3nc(Cl)ccc23)CC1 [Example 10, 6-Chloroisoxazolo[5,4-b]pyridin-3-yl 4-methylpiperidine-1-carboxylate] | 0.67 µM
7 | Cc1ccc2c(OC(=O)N3CCC(C)CC3)noc2n1 [Example 11, 6-Methylisoxazolo[5,4-b]pyridin-3-yl 4-methylpiperidine-1-carboxylate] | 0.26 µM

Target: endothelial lipase (EL) (Homo sapiens (Human), UniProt Q9Y5X9)
Sequence (Q9Y5X9 21-500, species assumed): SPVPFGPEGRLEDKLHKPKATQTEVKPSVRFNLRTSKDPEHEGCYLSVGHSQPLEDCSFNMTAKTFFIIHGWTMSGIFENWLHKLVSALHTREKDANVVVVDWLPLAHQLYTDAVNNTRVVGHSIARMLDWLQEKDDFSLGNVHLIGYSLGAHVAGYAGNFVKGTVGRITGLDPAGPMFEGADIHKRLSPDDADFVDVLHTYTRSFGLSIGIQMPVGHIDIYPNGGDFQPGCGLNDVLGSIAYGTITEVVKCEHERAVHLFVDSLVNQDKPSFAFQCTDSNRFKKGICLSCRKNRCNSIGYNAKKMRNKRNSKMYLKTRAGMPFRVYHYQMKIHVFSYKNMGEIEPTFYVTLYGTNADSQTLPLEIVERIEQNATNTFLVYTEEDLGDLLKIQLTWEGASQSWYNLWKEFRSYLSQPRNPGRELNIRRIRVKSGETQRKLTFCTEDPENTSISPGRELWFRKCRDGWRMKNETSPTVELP
Test: EL inhibition assay
Assay type: biochemical
Conditions: EL from conditioned medium of recombinant cell lines (CHO, HEK293); Bodipy phospholipid substrate
Source text: EL is released as secretory protein in high concentration into cell culture medium (conditioned medium) by recombinant cell lines (CHO, HEK293). This is employed as enzyme solution after concentration.
The phospholipase-specific substrate 1,2-bis(4,4-difluoro-5,7-dimethyl-4-bora-3a,4a-diaza-s-indacene-3-undecanoyl)-sn-glycero-3-phosphocholine, (manufacturer Molecular Probes) is used to characterize the enzymatic activity of endothelial lipase and the effect of inhibitors. Hydrolysis of the A1 ester linkage of this phospholipid by the enzyme liberates the fluorescent dye Bodipy which can be detected after separation by thin-layer chromatography on an HPTLC plate (silica gel 60, Merck) or directly in the reaction vessel by measuring the fluorescence.
The substrate solution is prepared by taking up 100 μg of 1,2-bis(4,4-difluoro-5,7-dimethyl-4-bora-3a,4a-diaza-s-indacene-3-undecanoyl)-sn-glycero-3-phospho-choline (manufacturer Molecular Probes), 2.4 mg of tripalmitin (Sigma) and 7.9 mg of DOP—choline (1,2-dioleoyi-sn-glycero-3-phosphocholine) in 393 μl of chloroform and then transferring 157 μl into a fresh reaction vessel. After evaporation of the solvent, the lipid mixture is dissolved in 4 ml of 200 mM TRIS-HCl, 150 mM sodium chloride, pH=7.4, by sonication twice. […] After evaporation of the eluent, the plate is read in a fluorescence scanner. […]

Row | Compound | IC50
8 | Cc1ccccc1CNC(=O)Nc1nsc2ccc([N+](=O)[O-])cc12 [Example 7, 1-(2-Methylbenzyl)-3-(5-nitrobenzo[d]isothiazol-3-yl)urea] | 14.6 µM
9 | CCCCCCNC(=O)Nc1noc2ccccc12 [Example 8, 1-Benzo[d]isoxazol-3-yl-3-hexylurea] | 14.6 µM
